Format in all cases: functional, organism-based
What all share (conditions): Canis lupus familiaris; tested as the 125I-labelled form

The species entered for assay [1] is Canis familiaris. Briefly: Thrombus and blood ratio was determined in the canine arteriovenous shunt model in arterial rich condition.
The species named for assay [2] is Canis familiaris. Briefly: Compound was tested for uptake in thrombus in the canine arteriovenous shunt model in venous rich condition.
The species entered for assay [3] is Canis familiaris. Put plainly: Thrombus and blood ratio was determined in the canine arteriovenous shunt model in venous rich condition.
The species entered for assay [4] is Canis familiaris. Briefly: Compound was tested for uptake in thrombus in the canine arteriovenous shunt model in arterial rich condition.

As to `CN1C(=O)[C@@H](CCCCNC(=O)CCc2ccc(O)c(I)c2)NC(=O)c2cccc(c2)CNC(=O)[C@H](CC(=O)O)NC(=O)CNC(=O)[C@@H]1CCCN=C(N)N`, the Uptake ratio in the assay listed under Canis familiaris [1] came out at 43.9; in the assay listed under Canis familiaris [3], 7.82. Also, the values for the ID/g in the assay listed under Canis familiaris [2] and in the assay listed under Canis familiaris [4] were 0.45% and 2.6%, respectively.

Regarding `CN1C(=O)[C@@H](Cc2ccc(O)c(I)c2)NC(=O)c2cccc(c2)CNC(=O)[C@H](CC(=O)O)NC(=O)CNC(=O)[C@@H]1CCCN=C(N)N`, the Uptake ratio in the assay filed under Canis familiaris [1] came to 173; in the assay filed under Canis familiaris [3], 19.3. The results for the ID/g in the assay filed under Canis familiaris [2] and in the assay filed under Canis familiaris [4] were 0.25% and 1.81%, respectively.

Values taken from ChEMBL document CHEMBL1129125, “Tc-99m-labeled fibrinogen receptor antagonists: design and synthesis of cyclic RGD peptides for the detection of thrombi” (Bioorg Med Chem Lett, 1996).
